# Experimental data from US11352354B2, “Substituted penta-fused hexa-heterocyclic compounds, preparation method therefor, drug combination and use thereof” (Xiamen University, priority 2017, dated 2022).
# Values joined by “and” are separate entries in the source; they are usually repeats but may differ in a detail not shown here. Equal entries are not always repeated. “Also recorded” adds a separate entry of the source.
# Legend:
# PIKfyve protein = PIKfyve protein (Homo sapiens (Human), UniProt Q9Y2I7); test: Dissociation equilibrium constant (Kd) of compound and PIKfyve protein, DiscoverX KINOMEscan; type: binding; details: eleven 3-fold dilutions, curve fitting
# PIKfyve protein, sequence (Q9Y2I7 whole entry): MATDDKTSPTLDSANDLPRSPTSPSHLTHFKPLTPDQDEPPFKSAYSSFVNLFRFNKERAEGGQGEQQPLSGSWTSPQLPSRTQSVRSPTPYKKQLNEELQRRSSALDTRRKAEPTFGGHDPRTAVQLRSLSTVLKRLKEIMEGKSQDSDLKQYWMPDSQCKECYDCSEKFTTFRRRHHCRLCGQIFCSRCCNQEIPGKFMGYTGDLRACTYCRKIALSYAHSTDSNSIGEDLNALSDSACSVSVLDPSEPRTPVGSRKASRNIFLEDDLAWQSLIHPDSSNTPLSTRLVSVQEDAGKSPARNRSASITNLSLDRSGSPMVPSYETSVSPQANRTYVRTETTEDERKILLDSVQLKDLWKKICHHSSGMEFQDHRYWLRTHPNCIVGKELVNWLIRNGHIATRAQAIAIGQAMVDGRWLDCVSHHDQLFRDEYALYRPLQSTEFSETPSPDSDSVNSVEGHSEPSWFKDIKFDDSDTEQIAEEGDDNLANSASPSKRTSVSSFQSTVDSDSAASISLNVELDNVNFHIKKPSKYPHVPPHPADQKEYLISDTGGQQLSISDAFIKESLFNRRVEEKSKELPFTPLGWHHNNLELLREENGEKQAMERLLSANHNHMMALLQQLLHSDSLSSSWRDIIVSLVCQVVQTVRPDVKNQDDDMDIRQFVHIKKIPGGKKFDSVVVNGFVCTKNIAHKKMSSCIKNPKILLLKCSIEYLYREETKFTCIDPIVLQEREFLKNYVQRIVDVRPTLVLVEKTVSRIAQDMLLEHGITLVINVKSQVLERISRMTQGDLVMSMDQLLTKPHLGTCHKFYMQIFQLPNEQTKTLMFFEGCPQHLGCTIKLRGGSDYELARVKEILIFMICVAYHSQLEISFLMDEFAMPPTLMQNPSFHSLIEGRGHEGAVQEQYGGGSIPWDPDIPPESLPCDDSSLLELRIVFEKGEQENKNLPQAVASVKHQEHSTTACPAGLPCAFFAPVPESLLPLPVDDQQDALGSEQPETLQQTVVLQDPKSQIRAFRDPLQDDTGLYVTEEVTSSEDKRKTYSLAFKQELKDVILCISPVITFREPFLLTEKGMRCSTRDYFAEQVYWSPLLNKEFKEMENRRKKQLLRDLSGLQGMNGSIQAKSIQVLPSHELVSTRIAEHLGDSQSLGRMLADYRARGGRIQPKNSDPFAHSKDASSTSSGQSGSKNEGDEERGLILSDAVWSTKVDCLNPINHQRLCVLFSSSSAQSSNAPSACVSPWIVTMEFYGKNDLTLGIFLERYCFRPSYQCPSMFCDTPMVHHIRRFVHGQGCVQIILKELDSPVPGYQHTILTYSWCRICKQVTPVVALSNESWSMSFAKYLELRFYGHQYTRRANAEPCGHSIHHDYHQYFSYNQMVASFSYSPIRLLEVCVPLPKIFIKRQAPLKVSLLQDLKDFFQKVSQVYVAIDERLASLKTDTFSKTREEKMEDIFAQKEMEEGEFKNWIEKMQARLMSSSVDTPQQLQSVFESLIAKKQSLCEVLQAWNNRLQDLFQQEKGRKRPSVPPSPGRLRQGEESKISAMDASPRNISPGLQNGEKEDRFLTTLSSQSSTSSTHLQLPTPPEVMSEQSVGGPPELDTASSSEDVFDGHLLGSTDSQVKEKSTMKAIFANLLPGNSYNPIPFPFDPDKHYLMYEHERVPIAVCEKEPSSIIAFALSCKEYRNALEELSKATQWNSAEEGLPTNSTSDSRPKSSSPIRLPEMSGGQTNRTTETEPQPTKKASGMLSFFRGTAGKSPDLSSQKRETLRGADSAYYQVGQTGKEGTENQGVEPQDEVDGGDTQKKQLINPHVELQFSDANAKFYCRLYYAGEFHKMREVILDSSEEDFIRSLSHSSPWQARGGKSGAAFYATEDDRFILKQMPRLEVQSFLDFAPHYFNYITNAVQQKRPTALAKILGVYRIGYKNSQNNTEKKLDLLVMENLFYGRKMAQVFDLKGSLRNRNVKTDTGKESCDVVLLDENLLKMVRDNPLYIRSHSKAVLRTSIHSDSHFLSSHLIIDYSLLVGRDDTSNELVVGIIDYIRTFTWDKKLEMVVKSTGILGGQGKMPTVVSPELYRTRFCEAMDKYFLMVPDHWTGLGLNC
# Method: II. Determination of Dissociation Equilibrium Constant (Kd Value) of Compound and PIKfyve Protein
# The Kd value was determined by DiscoverX's KINOMEscan™ technology according to the following steps:
# 1. Preparation of magnetic beads: biotin-labeled small molecule ligand and avidin-coated magnetic beads were allowed to interact at room temperature for 30 minutes, and then added with excess biotin, followed by washing with a blocking solution (1% BSA, 0.05% Tween 20, 1 mM DTT) to remove unbound ligand.
# 2. Binding reaction: in a 384 plate, 0.02 mL system, DNA-labeled protein, small molecule ligand-bound magnetic beads, and different concentrations of compound to be tested were mixed in a reaction solution (0.17×PBS, 0.05% Tween 20, 6 mM DTT) at room temperature with shaking for 1 hr, to which was added an eluant (1×PBS, 0.05% Tween 20) for elution. Magnetic beads were resuspended by an eluant (1×PBS, 0.05% Tween 20, 0.5 μM non-biotin-labeled small molecule ligand), and shaken at room temperature for 30 min before separating out the eluant.
# 3. Determination of Kd value: the content of protein in the above eluate was determined by qPCR. Eleven 3-fold dilution concentrations were determined for the compound to be tested, with 3 DMSO controls for each concentration, and the Kd value was obtained by curve fitting.
# MDA-MB-231 cells = test: Vacuolation of MDA-MB-231 cells caused by inhibition of compounds on PIKfyve (microscopy); type: cell-based; details: for degree of vacuolation, 1 μM, 24 h / degree of vacuolation, 1 μM, 48 h / degree of vacuolation, 10 μM, 24 h / degree of vacuolation, 10 μM, 48 h: MDA-MB-231 cells; for degree of vacuolation, 1 μM, 24 h: key: '+' represents the degree of vacuolation; ++: more '+' indicates more obvious vacuolation; +++: more '+' indicates more obvious vacuolation; ++++: more '+' indicates more obvious vacuolation; '−' represents no vacuolation; for degree of vacuolation, 1 μM, 48 h: key: '+' represents the degree of vacuolation; ++: more '+' indicates more obvious vacuolation; +++: more '+' indicates more obvious vacuolation; ++++: more '+' indicates more obvious vacuolation; '−' represents no vacuolation; for degree of vacuolation, 10 μM, 24 h: key: '+' represents the degree of vacuolation; ++: more '+' indicates more obvious vacuolation; +++: more '+' indicates more obvious vacuolation; ++++: more '+' indicates more obvious vacuolation; '−' represents no vacuolation; for degree of vacuolation, 10 μM, 48 h: key: '+' represents the degree of vacuolation; ++: more '+' indicates more obvious vacuolation; +++: more '+' indicates more obvious vacuolation; ++++: more '+' indicates more obvious vacuolation; '−' represents no vacuolation
# Method in brief: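 MDA-MB-231 cells in 12-well plates at 37 °C, 5% CO2 were observed by microscopy after 24 and 48 h of culture for cytoplasmic vacuolation as a readout of PIKfyve inhibition. Scoring was semi-quantitative, from − (none) to increasing +.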
# ST486 cells = test: Growth inhibition of PIKfyve-mediated tumor cells by Cell Titer Glo method, ST486; type: cell-based; details: Homo sapiens, 120 h, CellTiter-Glo, 5 days of culture, read-out: Inhibition rate % (ST486)
# Method: (§1) IV. Determination of Growth Inhibition Rates of Compounds Against PIKfyve-Mediated Tumor Cells by Cell Titer Glo Method
# (§2) 1. Cell plating: cells in logarithmic growth phase were counted and inoculated in 384-well plate.
# (§3) 3. […] RLU was measured on PHERAstar Plus.
# Toledo cells = test: Growth inhibition of PIKfyve-mediated tumor cells by Cell Titer Glo method, Toledo; type: cell-based; details: Homo sapiens, 120 h, CellTiter-Glo, 5 days of culture, read-out: Inhibition rate % (Toledo)
# Method: as §1, §2, §3
# JeKo-1 cells = test: Tumor cell growth inhibition by MTS method, JeKo-1; type: cell-based; details: Homo sapiens, JeKo-1, 120 h, 5 days of culture; for inhibition at 10 µM: read-out: cell growth inhibition rate of compounds at 10 μM
# Method in brief: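 Cells seeded at 20000 per well, treated with 8-point 3-fold dilutions from 10 mM DMSO stock in triplicate, 0.1% DMSO controls. MTS read at OD490; IC50 from inhibition rates, or % inhibition at 10 μM.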
Compound,Kd (PIKfyve protein),"degree of vacuolation, 1 μM, 24 h (MDA-MB-231 cells)","degree of vacuolation, 1 μM, 48 h (MDA-MB-231 cells)","degree of vacuolation, 10 μM, 24 h (MDA-MB-231 cells)","degree of vacuolation, 10 μM, 48 h (MDA-MB-231 cells)",inhibition at 3.3 µM (ST486 cells),inhibition at 3.3 µM (Toledo cells),IC50 (JeKo-1 cells),inhibition at 10 µM (JeKo-1 cells),"vacuolation of MDA-MB-231 cells (FIG. 1) (MDA-MB-231 cells; 1 μmol/L, time and concentration dependence)"
CS(=O)(=O)Nc1cccc(Nc2nc(-c3cccnc3)c3[nH]ccc3n2)c1 [V-c-1],130 nM,−,−,++,++,35.2%,43.1%,,,
c1cncc(-c2nc(Nc3cc(N4CCOCC4)cc(N4CCOCC4)c3)nc3cc[nH]c23)c1 [V-c-2],2000 nM,−,−,−,−,18%,< 10%,,,
O=C(Nc1cccc(C(F)(F)F)c1)c1cccc(Nc2nc(-c3cccnc3)c3[nH]ccc3n2)c1 [V-c-4],33 nM,++,++,+++,+++,76.2%,99.5%,5940 nM,,
Cc1ccc(C(=O)Nc2cccc(NS(C)(=O)=O)c2)cc1Nc1nc(-c2cccnc2)c2[nH]ccc2n1 [V-c-6],16 nM,+,++,+++,+++,69.9%,93.9%,4950 nM,,
Cc1ccc(C(=O)Nc2cccc(OC(F)(F)F)c2)cc1Nc1nc(-c2cccnc2)c2[nH]ccc2n1 [V-c-8],13 nM,+++,+++,+++,+++,51%,96.3%,,39%,
Cc1cn(-c2cc(NC(=O)c3ccc(C)c(Nc4nc(-c5cccnc5)c5[nH]ccc5n4)c3)cc(C(F)(F)F)c2)cn1 [V-c-10],3500 nM,−,−,++,++,93%,94.8%,,,
Cc1ccc(C(=O)Nc2ccc(CN3CCN(C)CC3)c(C(F)(F)F)c2)cc1Nc1nc(-c2cccnc2)c2[nH]ccc2n1 [V-c-11],700 nM,−,−,−,−,96.2%,95.3%,,,
COc1ccc(C(F)(F)F)cc1NC(=O)c1ccc(C)c(Nc2nc(-c3cccnc3)c3[nH]ccc3n2)c1 [V-c-12],> 30000 nM,+++,+++,+++,+++,72.3%,95.6%,2790 nM,,
Cc1ccc(C(=O)Nc2cc(C(F)(F)F)ccc2F)cc1Nc1nc(-c2cccnc2)c2[nH]ccc2n1 [V-c-13],16 nM,++,−,++,++,85.2%,99.7%,,34.3%,
Cc1ccc(C(=O)Nc2cc(C(F)(F)F)ccc2Cl)cc1Nc1nc(-c2cccnc2)c2[nH]ccc2n1 [V-c-14],20 nM,++,−,++,++,52.2%,99.6%,,46.6%,
Cc1ccc(NC(=O)Nc2cccc(C(F)(F)F)c2)cc1Nc1nc(-c2cccnc2)c2[nH]ccc2n1 [V-c-15],140 nM,++,++,++,++,57.5%,99.6%,,35.1%,
Cc1ccc(NC(=S)Nc2cccc(C(F)(F)F)c2)cc1Nc1nc(-c2cccnc2)c2[nH]ccc2n1 [V-c-16],110 nM,++,++,++,++,60.3%,99.5%,6220 nM,,
O=C(Nc1cccc(Nc2nc(-c3cccnc3)c3[nH]ccc3n2)c1)c1cccc(C(F)(F)F)c1 [V-c-18],6.4 nM,+++,+++,+++,+++,96%,95.2%,862 nM,,
Cc1ccc(NC(=O)c2cccc(C(F)(F)F)c2)cc1Nc1nc(-c2cccnc2)c2[nH]ccc2n1 [V-c-19],16 nM and 15 nM,+++,+++,+++,+++,70.6%,97.3%,2090 nM,,"induces vacuolation of MDA-MB-231 cells, with good time dependence; also recorded: induces vacuolation of MDA-MB-231 cells, with good concentration dependence"
Cc1ccc(NC(=O)c2ccc(CN3CCN(C)CC3)c(C(F)(F)F)c2)cc1Nc1nc(-c2cccnc2)c2[nH]ccc2n1 [V-c-22],21000 nM,,,,,57.1%,64.2%,1540 nM,,
Cc1ccc(C(=O)Nc2cccc(C(F)(F)F)c2)cc1Nc1nc(-c2ccncc2)c2[nH]ccc2n1 [V-c-38],> 30000 nM,,,,,30%,53.3%,,,
Cc1ccc(NC(=O)c2cccc(C(F)(F)F)c2)cc1Nc1nc(-c2ccncc2)c2[nH]ccc2n1 [V-c-39],> 30000 nM,,,,,9.57%,49.1%,,,
Cc1ccc(NC(=O)c2cccc(C(F)(F)F)c2)cc1Nc1nc(-c2cccnc2)c2c(ccn2C)n1 [V-c-40],380 nM,+,+++,+,+++,57.1%,98.8%,,,
